Entries after “also recorded” stand apart in the source; their conditions may differ.
Assays:
Format in all cases: in vivo, mouse
ERK = test: Lymphocyte pERK (flow cytometry); settings: Fmr1 KO mice, 2 months old
Method: (§1) In all cases, saline was used as a vehicle (control).
The Ras-Mek-ERK and PI3K-Akt-mToR signaling pathways are involved in mediating activity dependent alterations in gene transcription underlying changes in synaptic plasticity (Klann and Dever, 2004). Phosphorylated ERK and Akt protein expression was measured by western blot analysis as previously described by Lopez Verrilli (Lopez Verrilli et al., 2009). The antibodies employed were anti-phosphospecific antibodies against Akt (1/1000) and kinase (ERK) 1/2 (1/2000) (Cell Signaling Technology, Danvers, Mass., USA). The antibody against phospho-ERK detects phosphorylation at phospho-ERK 1/2 (Thr202/Tyr204) whereas the antibody against phospho-Akt detects phosphorylation at phospho-Akt (Thr308). Total Akt and ERK 1/2 protein content and phosphorylated ERK and Akt were evaluated by blotting membranes with antiphospho-Akt (1/1000) and antiphospho-ERK antibodies (1/2000) (Cell Signaling Technology, Danvers, Mass., USA). Akt or ERK phosphorylation was normalized to protein content in the same sample and expressed as % of change with respect to basal conditions, considering basal levels as 100%. Protein loading was evaluated by stripping and re-blotting membranes with j-actin antibody (1/1000) (Sigma-Aldrich, St. Louis, Mo., USA). Phosphorylated ERK and Akt protein expression in blood lymphocytes was measured by flow cytometry. For lymphocyte biomarker determinations, a FACStar plus (Becton Dickinson) was used with the excitation laser tuned at 488 nm and green fluorescence from FITC (GST) was collected through a 515-545 nm bandpass filter. The mean FITC fluorescence Intensity was calculated in relation to the fluorescence of reference cells. The mean cellular fluorescence intensity (MFI) is directly proportional to the mean number of Ab molecules bound per cell.

[1] = tested on: Fmr1 knockout (KO) or Wild Type (WT) mice; test: Social recognition memory (Trial 2, social memory ratio); settings: for social memory, duration of sniffing: 2 months old, Study 2; for duration of sniffing, Trial 2: 150 mg/kg ip 7 days
Method: (§2) Fmr1 knockout mice (KO2) mice (The Dutch-Belgium Fragile X Consortium, 1994), initially obtained from the Jackson Laboratory, and wild type (WT) littermates were generated on a C57BL/6J background and repeatedly backcrossed onto a C57BL/6J background for more than eight generations. The Fmr1 knockout mice were housed in groups of the same genotype in a temperature and humidity controlled room with a 12-h light-dark cycle (lights on from 7 am to 7 pm; testing was conducted during light phase). Room temperature and humidity were recorded continuously in the holding room while food and water were available ad libitum. Testing was conducted on healthy Fmr1 knockout mice and their wild type littermates (N=10 mice per treatment group) at 2 or 6 months of age during the behavioral experiments. Mice were housed in commercial plastic cages and experiments were conducted in line with the requirements of the UK Animals (Scientific Procedures) Act, 1986. All experiments were conducted with experimenters blind to genotype and drug treatment. Animals were allowed a minimum acclimatization period of one week prior to performing any experiment. No prophylactic or therapeutic treatment was administered during the acclimatization period.
as §1
Mice were placed in a test arena/cage of the same order of magnitude in size as the adult's home cage (40×23×12 cm cage, with a Perspex lid to facilitate viewing the mice) with fresh wood chippings on the floor. A background mouse odor was created by putting in some non-experimental mice into the apparatus prior to testing. Mice were transferred to the experimental room 10-15 min prior to testing. A test subject and a juvenile were placed simultaneously into the test cage. The total duration and number of bouts of social investigation, defined as sniffing and close following (<2 cm from the tail) of the stimulus juvenile by the tested mouse, was assessed for 3 min. 30 min later, the test was repeated using the same stimulus juvenile. Data parameters collected were the total duration and total number of bouts of sniffing for the acquisition and recognition. A social memory ratio was derived, defined as trial 2/trial 1+2. Therefore, no memory (e.g. 20/(20+20)=0.5 and memory (e.g. 10/(20+10)=<0.5.
(§3) Multivariate analysis of variance was employed to assess group differences across data. Repeated measures ANOVA were performed for behavioral data. Statistically significant effects in each ANOVA were followed with post hoc comparisons, using the Newman-Keuls test (Study 1) or the Tukey test (Study 2). A p value of less than 0.05 was considered significant.
Social memory ratio was defined as the duration of sniffing bouts: trial 2/trial 1+2. Therefore, an example of no memory was (e.g. 20/(20+20)=0.5, while an example of memory was (e.g. 10/(20+10)=<0.5.

[2] = tested on: Fmr1 knockout (KO) or Wild Type (WT) mice; test: Contextual fear conditioning (freezing)
Method: as §2, §1
In the fear conditioning experiment, mice were placed into a novel environment (dark chamber) and received pairings of a cue and electric footshock (0.2 mA for 1 sec (Study 1) or 0.7 mA for 0.5 sec (Study 2)). […] Freezing time was defined as the time that the mice spent in immobile behavior, except for respiration. The data was expressed as the percentage of the test period. 24 hours after a training session, mice were tested for 5 min in the training chamber with no shock presentation and observed for freezing behavior.
as §3

[3] = tested on: Fmr1 knockout (KO) or Wild Type (WT) mice; test: Y-maze reference memory task (rewarded); settings: 2 months old, 150 mg/kg once daily 7 days, Study 1
Method: as §2, §1
Two tasks were implemented. The first was an unlearned assessment of spontaneous alternation between arm entries. […]

[4] = Fmr1 KO mice, 6 months old, 150 mg/kg ip once daily 7 days

Q: Which “lymphocyte pERK” value (ERK; 150 mg/kg ip once daily 7 days) does the source give for Cc1ncc(CO)c(CO)c1O.O=C1CC[C@@H](C(=O)O)N1 [metadoxine, pyridoxol L,2-pyrrolidon-5 carboxylate] here?
A: normalized overactivated ERK

Q: What about the “lymphocyte pERK” value (ERK; 150 mg/kg oral once daily 7 days) of the same compound?
A: normalized overactivated ERK

Q: And the “lymphocyte pERK” value (ERK; 300 mg/kg oral once daily 7 days)?
A: normalized overactivated ERK

Q: What about the “social memory, duration of sniffing” value ([1]; Fmr1 KO mice, 150 mg/kg ip once daily 7 days) of the same compound?
A: reversal was complete

Q: What about the “social memory, duration of sniffing” value ([1]; Fmr1 KO mice, 150 mg/kg oral once daily 7 days) of the same compound?
A: reversal was complete

Q: And the “social memory, duration of sniffing” value ([1]; Fmr1 KO mice, 300 mg/kg oral once daily 7 days)?
A: reversal was complete

Q: What about the “social memory, duration of sniffing (Trial 2)” value [1, 4] of the same compound?
A: reversal by metadoxine was complete

Q: What about the “social memory, number of sniffing bouts (Trial 2)” value [1, 4] of the same compound?
A: reversal for number of sniffing bouts was partial

Q: And the “duration of sniffing, Trial 2” value ([1]; KO-M: Fmr1 KO mice, 6 months old)?
A: 12.7

Q: What about the “social memory, duration of sniffing” value ([1]; WT mice, any dose (150 mg/kg ip, 150 and 300 mg/kg oral)) of the same compound?
A: without effect on WT mice

Q: And the “social memory, sniffing bouts and duration (Trial 2)” value ([1]; WT mice, 6 months old, 150 mg/kg ip once daily 7 days)?
A: without effect on WT mice

Q: And the “duration of sniffing, Trial 2” value ([1]; WT-M: WT mice, 6 months old)?
A: 12.5

Q: What about the “contextual fear conditioning, freezing (learning deficit)” value ([2]; Fmr1 KO mice aged six months, 150 mg/kg ip once daily 7 days, Study 2) of the same compound?
A: complete reversal

Q: And the “contextual fear conditioning, freezing (learning deficit)” value ([2]; Fmr1 KO mice, 2 months old, 100 mg/kg ip once daily 7 days, Study 1)?
A: partial reversal

Q: And the “contextual fear conditioning, freezing (learning deficit)” value ([2]; Fmr1 KO mice, 2 months old, 150 mg/kg ip once daily 7 days, Study 1, 150 mg/kg)?
A: reversed the learning deficit effect in Fmr1 knockout mice, this reversal being partial; also recorded: fully rescued

Q: What about the “contextual fear conditioning, freezing behavior” value ([2]; Fmr1 KO mice, 2 months old, 150 mg/kg ip once daily 7 days, Study 2) of the same compound?
A: the reversal was complete

Q: And the “contextual fear conditioning, freezing behavior” value ([2]; Fmr1 KO mice, 2 months old, 150 mg/kg oral once daily 7 days, Study 2)?
A: the reversal was complete

Q: What about the “contextual fear conditioning, freezing (learning deficit)” value ([2]; Fmr1 KO mice, 2 months old, 200 mg/kg ip once daily 7 days, Study 1, 200 mg/kg) of the same compound?
A: completely reversed; also recorded: fully rescued

Q: What about the “contextual fear conditioning, freezing behavior” value ([2]; Fmr1 KO mice, 2 months old, 300 mg/kg oral once daily 7 days, Study 2) of the same compound?
A: the reversal was complete

Q: And the “contextual fear conditioning, freezing behavior” value ([2]; WT mice, 2 months old, 150 mg/kg ip or 150 and 300 mg/kg oral, 7 days, Study 2)?
A: No effects were seen

Q: And the “contextual fear conditioning, freezing” value ([2]; WT mice, 2 months old, 100, 150 or 200 mg/kg ip once daily 7 days, Study 1)?
A: no effect on WT mice

Q: What about the “Y-maze rewarded reference memory learning (appropriate arm entries)” value ([3]; Fmr1 KO mice) of the same compound?
A: reduced this deficit

Q: What about the “Y-maze rewarded reference memory learning” value ([3]; WT mice) of the same compound?
A: No Effect on WT Mice
